Tested on: female mouse (Jcl: ICR lineage)
Experiment: Repellent test (Experimental Example 1, two-section feed choice apparatus)
Type: in vivo
Conditions: drug amount 0.5 g on one sheet of filter paper
Experimental: Experimental Example 1 (Test Animal: Mouse)
The repellent test was performed using the repellent test apparatus described in FIG. 1. The apparatus has a residential section for the test animal in the center part, test section 1 and test section 2 setting food on both ends, test section 1 and the residential section are connected by a cylindrical path (diameter 0.05 m, length 2.08 m), and test section 2 and the residential section are also connected by a cylindrical path. The test section 1 and test section 2 are resin cuboid shape (0.68 m×0.40 m×0.32 m) containers, and the connection parts with the paths are opened. The residential section is also a resin cuboid shape (0.28 m×0.45 m×0.16 m), and the upper part made of an iron net so that the air can be taken in. An openable door is set in the connection part between the residential section and the path. Chips for floor:clean chip SP (manufactured by CLEA Japan, Inc.) were spread all over the bottom part of the residential section.
An acclimation operation was performed before the repellent test to make the test animal experienced with the test apparatus.
A weighed feed (solid food CE-2 for breeding and raising, manufactured by CLEA Japan, Inc.) (initial feed weight about 10 g) was set in each of test section 1 and test section 2, one female mouse (Jcl: ICR lineage) was placed in the residential section. One day later, the feed remaining in both test sections was weighed, and the eating rate was calculated by the following formula. When the eating rates of the both test sections are considerably different, the feed was changed to a new one, and the acclimation operation was repeated for several days until the eating rate was stabilized, and the eating rates of the both test sections became almost equivalent. eating rate (%)=100×amount eaten (g)/initial feed weight (g) <Repellent Test>
After completion of the acclimation operation, the same feed (solid food CE-2 for breeding and raising, manufactured by CLEA Japan, Inc.) (about 10 g) was placed in the both test sections. […] After 1 hr from setting the filter paper, the door of the connection part between the residential section and the path was closed, and thereafter the door was opened. After lapse of one day from the start of the test, the feed remaining in the both test sections was weighed. When the test was continued for not less than one day, the feed in the both test sections was exchanged every other day, and the remaining feed was weighed every day.
The repellent rate was calculated by the following formula. The test section where the filter paper (diameter 70 mm, manufactured by Advantec Toyo Kaisha, Ltd.) treated with the test compound was set was taken as the treatment section, and the test section where the filter paper was not set was taken as the non-treatment section. repellent rate (%)=100×(amount eaten in non-treatment section−amount eaten in treatment section)/(amount eaten in non-treatment section+amount eaten in treatment section)

Structure (SMILES) | repellent rate (%) (number of observation days 1) | repellent rate (%) (number of observation days 3)
c1ccc2scnc2c1 [Comparison compound C, reference compound] | 4% | –
Sc1nc2ccccc2s1 [comparison compound A, reference compound] | 0% | –
c1ccc(-c2nc3ccccc3s2)cc1 [comparison compound B, reference compound] | 0% | –
CC(C)Cc1nc2ccccc2s1 [present compound 5, 2-isobutyl-1,3-benzothiazole] | 94% | –
FC(F)(F)c1nc2ccccc2s1 [present compound 6, 2-trifluoromethyl-1,3-benzothiazole] | 100% | –
Cc1nc2c(C)cccc2s1 [present compound 13, 2,4-dimethyl-1,3-benzothiazole] | 100% | 100%
CC1(C)Nc2ccccc2S1 [present compound 14, 2,2-dimethyl-2,3-dihydro-1,3-benzothiazole] | 100% | 92%

Source: patent US10264789B2, “Rodentia animal repellent” (SUMITOMO CHEMICAL COMPANY, LIMITED, priority 2014, dated 2019)
